Read-outs that look alike come from different tables or passages of the source.
What was measured:
[1] = tested on: drug-resistant viral strain of L103N+Y181C; assay: Anti-HIV activity in MT-4 cells, drug-resistant viral strain; assay type: cell-based, HIV-1
Experimental: (§1) Anti-virus activity of cells in vitro was determined by Rega Institute for Medical of […] Katholleke University, consisting mainly: inhibitory activity towards HIV-infected MT-4 cells and cell toxicity. The method is described below: exert the compound on the HIV-infected ME-4 cells, and determine the protection of the drug on the cell lesions induced by HIV at varied HIV-infection intervals, calculate the half effective concentration IC50, the required concentration that protect 50% of cells from cell lesions induced by HIV. Toxicity determination is carried out in parallel with anti-HIV activity experiments, also in the cultured MT-4 cells, determine the CC50, the concentration that leads 50% of uninfected cells to cell lesions, and calculate the selectivity index SI=CC50/IC50 with the MTT method.
(§2) Anti-HIV activity of various compounds is monitored by the inhibitory efficiency of drugs on the cell lesions induced by HIV. Carry out cell culture with MT-4 cells. The adopted virus strains are HIV-1 IIIB strain and drug-resistant viral strain of […].
(§3) The detailed operation is as follows: the compound is dissolved with DMSO or water and diluted with phosphate buffer saline, 3×10^5 MT-4 cells are cultured with 100 μL various concentrations of compounds for 1 h, then 100 μL suitable virus dilution is added to the compound, and the cells are cultured at 37° C. for 1 h. After being washed for 3 times, the cells are suspended again in the culture media containing or not compounds individually. Subsequently, the cells are transferred to the atmosphere containing 5% CO2 and cultured for 7 days at 37° C., and culture media containing or not compounds are used to replace or supplement the culture solution on the third day after infection. Kinds of culture conditions should be duplicated. The cell lesions caused by virus are monitored with reverse light microscopy everyday. Typically, the virus dilution applied in the present experiments generally cause cell lesion on the fifth day after infection. […] It should be emphasized that, when the compound is poorly water-soluble and can only be dissolved in DMSO, the ratio of DMSO to water is generally below 10% (the final concentration of DMSO in MT-4 cell culture media is smaller than 2%). Because DMSO can influence the anti-virus activity of the tested compounds, blank tests on the solution containing the same concentration of DMSO should be conducted in parallel. Additionally, the final concentration of DMSO is far below the concentration required to influence the replication of HIV-1 in T cells.

[2] = Cell toxicity in uninfected MT-4 cells (MTT method); assay type: cell-based; details: human
Experimental: as §1, §3

[3] = target: T1, HIV-1 RT (Human immunodeficiency virus type 1 group M subtype B, UniProt P03366); assay: In vitro anti HIV-1 reverse transcriptase screening (Biotin-dUTP, OD450); assay type: biochemical
T1 construct: Screening for in vitro activity of anti HIV-1 reverse transcriptase (HIV-1 RT); made in house

[4] = tested on: HIV-1 IIIB strain; assay: Anti-HIV activity: protection of HIV-infected MT-4 cells from virus-induced cell lesions; assay type: cell-based; details: for EC50: Human immunodeficiency virus 1, IIIB
Experimental: as §1, §2, §3

[5] = Human immunodeficiency virus 1, MT4, read-out: EC50 103N + 181C, MT-4 cells, Table 2
[6] = Human immunodeficiency virus 1, MT4, read-out: EC50 103N + 181C, MT-4 cells, Table 1
[7] = HIV-1 IIIB, MT-4 cells, Table 1
[8] = MT4, read-out: EC50 HIV-1(IIIB)

| SMILES | EC50 [1, 5] [nM] | CC50 at 7 days ([2]; uninfected MT-4 cells, Table 2) [nM] | IC50 [3] [nM] | EC50 ([4]; MT4, read-out: EC50 WT(IIIB)) [nM] | SI (Selectivity index, the ratio of CC50/IC50) ([4]; WT(IIIB), Table 2) | EC50 [1, 6] [nM] | SI (Selectivity index, the ratio of CC50/IC50) [4, 7] | other results |
| --- | --- | --- | --- | --- | --- | --- | --- | --- |
| COc1c(Oc2ccnc(Nc3ccc(C#N)cc3)n2)ccc2cc(C#N)ccc12 [Compound 20] | 380 | 161000 | 2290 | 1.2 | ≧134032 |  |  |  |
| COc1cc2cc(C#N)ccc2cc1Oc1ccnc(Nc2ccc(C#N)cc2)n1 [Compound 21] |  | 142000 | 1320 | 0.9 | >158228 |  |  |  |
| COc1cc2cc(C#N)ccc2c(OC)c1Oc1ccnc(Nc2ccc(C#N)cc2)n1 [Compound 22] | 160 | 20000 | 94.5 | 0.8 | ≧25000 |  |  |  |
| N#Cc1ccc(Nc2nccc(Oc3ccc4cc(C#N)ccc4c3Cl)n2)cc1 [Compound 23] | 700 | 86300 |  | 1.8 | 47964 |  |  |  |
| O=C1Nc2ccc(Cl)cc2[C@@](C#CC2CC2)(C(F)(F)F)O1 [EFV, efavirenz, reference compound] | 560 |  |  |  | >1434 | 560000 | >1434 | CC50 at 7 days ([2]; Table 1): 4300 nM; CC50 at 7 days ([2]; Table 3): > 6340 nM; SI (Selectivity index, the ratio of CC50/IC50) ([4]; HIV-1 IIIB, MT-4 cells, Table 3): >2174; EC50 ([4]; MT4, MT-4 cells, Table 1, read-out: EC50 HIV-1(IIIB)): 3 nM; EC50 ([4]; MT4, MT-4 cells, Table 2, read-out: EC50 WT(IIIB)): 3 nM |
| COc1cc(Oc2cccc3cccnc23)nc(Nc2ccc(C#N)cc2)n1 [Compound 4] |  |  |  |  |  | ≥ 42200 | 3299 | CC50 at 7 days ([2]; uninfected MT-4 cells, Table 1): 42200 nM; EC50 [4, 8]: 12.8 nM |
| N#Cc1ccc(Nc2nc(Cl)cc(Oc3cccc4cccnc34)n2)cc1 [Compound 2] |  |  |  |  |  | ≥ 20100 | 1031 | CC50 at 7 days ([2]; uninfected MT-4 cells, Table 1): 20100 nM; EC50 [4, 8]: 19.5 nM |
| COc1cc2cc(C#N)ccc2c(Cl)c1Oc1ccnc(Nc2ccc(C#N)cc2)n1 [Compound 24] | 150 | 15400 |  | 0.6 | ≧25701 |  |  |  |

— patent publication US8809343B2, “Pyrimidine derivative, preparation method and use thereof” (Fudan University, priority 2008, dated 2014)
